From PubChem BioAssay AID330 (DTP/NCI, 2004)
Values joined by “and” are separate entries in the source; they are usually repeats but may differ in a detail not shown here. Equal values may be shown once. Inconclusive results and toxic doses are left out. The calls were made as follows: active = survival T/C of 150% or more; inactive = T/C below 125% in these data. Peptide text beside a SMILES is read from it. * marks the point of attachment. Cbz = O=C(OCc1ccccc1)*

Tested on: P388 leukemia ip, CD2F1 mice, survival T/C
Experiment: NCI In Vivo Anticancer Drug Screen. Data for tumor model P388 Leukemia (intraperitoneal) in CD2F1 (CDF1) mice
Details: endpoint: median survival time, higher = longer survival
Summary of the method: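 Mice carrying the transplanted tumor received test compound or vehicle. Survival was recorded in each group, and the value is the treated-group measurement divided by that of the vehicle-treated control group.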

[1] = dose: 200.0 mg/kg/injection, schedule: Q04DX003 (ip), vehicle: saline
[2] = dose: 100.0 mg/kg/injection, schedule: Q01DX009 (ip), vehicle: saline
[3] = dose: 200.0 mg/kg/injection, schedule: Q01DX009 (ip), vehicle: saline
[4] = dose: 50.0 mg/kg/injection, schedule: Q01DX009 (ip), vehicle: saline
[5] = dose: 50.0 mg/kg/injection, schedule: Q01DX009 (ip), vehicle: saline with Tween-80
[6] = dose: 100.0 mg/kg/injection, schedule: Q01DX009 (ip), vehicle: saline with Tween-80
[7] = dose: 50.0 mg/kg/injection, schedule: Q01DX005 (ip), vehicle: Klucel (hydroxypropylcellulose) (HPC)
[8] = dose: 100.0 mg/kg/injection, schedule: Q01DX005 (ip), vehicle: Klucel (hydroxypropylcellulose) (HPC)
[9] = dose: 50.0 mg/kg/injection, schedule: Q01DX005 (ip), vehicle: saline with Tween-80
[10] = dose: 100.0 mg/kg/injection, schedule: Q01DX005 (ip), vehicle: saline with Tween-80

Measured: T/C

CCOC(=O)c1cnc(N(C)C)nc1SC(=N)N
inactive: dose: 50.0 mg/kg/injection, schedule: Q04DX003 (ip), vehicle: saline 100 % of control | dose: 100.0 mg/kg/injection, schedule: Q04DX003 (ip), vehicle: saline 95 % of control | [1] 104 % of control

Cc1oc2c(C)c3oc(=O)cc(C)c3cc2c1CN
inactive: dose: 12.5 mg/kg/injection, schedule: Q01DX001 (ip), vehicle: Klucel (hydroxypropylcellulose) (HPC) 111 % of control | dose: 25.0 mg/kg/injection, schedule: Q01DX001 (ip), vehicle: Klucel (hydroxypropylcellulose) (HPC) 96 % of control

CCOC(=O)CCN(CC)CC
inactive: dose: 88.0 mg/kg/injection, schedule: Q04DX003 (ip), vehicle: saline 100 % of control | [2] 116 % of control | dose: 132.0 mg/kg/injection, schedule: Q04DX003 (ip), vehicle: saline 95 % of control | [3] 111 % of control | [1] 109 % of control | dose: 300.0 mg/kg/injection, schedule: Q04DX003 (ip), vehicle: saline 109 % of control | dose: 400.0 mg/kg/injection, schedule: Q01DX009 (ip), vehicle: saline 111 % of control | dose: 400.0 mg/kg/injection, schedule: Q04DX003 (ip), vehicle: saline 100 % of control

CC(C)N1CCOCC1
inactive: dose: 25.0 mg/kg/injection, schedule: Q01DX009 (ip), vehicle: saline 110 % of control | [4] 105 % of control and 100 % of control | [2] 105 % of control and 113 % of control

O=C1c2ccccc2-c2c3c(cc4ccnc1c24)OCO3
inactive: dose: 3.12 mg/kg/injection, schedule: Q01DX009 (ip), vehicle: saline with Tween-80 115 % of control | dose: 6.25 mg/kg/injection, schedule: Q01DX009 (ip), vehicle: Klucel (hydroxypropylcellulose) (HPC) 101 % of control | dose: 6.25 mg/kg/injection, schedule: Q01DX009 (ip), vehicle: saline with Tween-80 105 % of control | dose: 12.5 mg/kg/injection, schedule: Q01DX009 (ip), vehicle: Klucel (hydroxypropylcellulose) (HPC) 97 % of control | dose: 12.5 mg/kg/injection, schedule: Q01DX009 (ip), vehicle: saline with Tween-80 89 % of control | dose: 25.0 mg/kg/injection, schedule: Q01DX009 (ip), vehicle: Klucel (hydroxypropylcellulose) (HPC) 99 % of control | dose: 50.0 mg/kg/injection, schedule: Q01DX009 (ip), vehicle: Klucel (hydroxypropylcellulose) (HPC) 100 % of control | [5] 99 % of control | [6] 99 % of control

Cc1ccc(Oc2ccc([N+](=O)[O-])c3[nH]c4ccccc4c(=O)c23)cc1
inactive: [5] 94 % of control | [6] 111 % of control | dose: 200.0 mg/kg/injection, schedule: Q01DX009 (ip), vehicle: saline with Tween-80 113 % of control

O=[N+]([O-])C1=CC(=N/Cl)/C=CC/1=N/Cl
inactive: dose: 12.5 mg/kg/injection, schedule: Q01DX005 (ip), vehicle: saline 105 % of control | dose: 25.0 mg/kg/injection, schedule: Q01DX005 (ip), vehicle: saline 100 % of control | dose: 50.0 mg/kg/injection, schedule: Q01DX005 (ip), vehicle: saline 101 % of control and 97 % of control | dose: 100.0 mg/kg/injection, schedule: Q01DX005 (ip), vehicle: saline 106 % of control | dose: 200.0 mg/kg/injection, schedule: Q01DX005 (ip), vehicle: saline 116 % of control

N#CC1=C(Nc2ccccc2)CCC1
inactive: dose: 12.5 mg/kg/injection, schedule: Q01DX005 (ip), vehicle: Klucel (hydroxypropylcellulose) (HPC) 95 % of control | dose: 25.0 mg/kg/injection, schedule: Q01DX005 (ip), vehicle: Klucel (hydroxypropylcellulose) (HPC) 101 % of control | [7] 99 % of control and 101 % of control | [8] 110 % of control

CCN(CC)Cc1c(C)[nH]c2ccccc2c1=O
inactive: [5] 109 % of control | [6] 118 % of control

COc1ccc(C(=S=O)N(C)c2ccccc2)cc1
inactive: [4] 100 % of control | [2] 100 % of control | [3] 90 % of control

CCOP(=O)(CS(=O)(=O)CCC1(C)NC(=O)NC1=O)OCC (centres undefined)
inactive: dose: 60.0 mg/kg/injection, schedule: Q01DX005 (ip), vehicle: saline 101 % of control | dose: 120.0 mg/kg/injection, schedule: Q01DX005 (ip), vehicle: saline 103 % of control | dose: 240.0 mg/kg/injection, schedule: Q01DX005 (ip), vehicle: saline 103 % of control

CC(C)CC(NC(=O)C(Cc1ccccc1)NC(=O)OCc1ccccc1)C(=O)O (stereo not drawn) (Cbz-Phe-Leu-OH; configuration not given here)
inactive: [9] 108 % of control | [10] 105 % of control

C(#Cc1c2ccccc2c(C#Cc2ccccc2)c2c1oc1c3ccccc3ccc12)c1ccccc1
inactive: dose: 100.0 mg/kg/injection, schedule: Q04DX003 (ip), vehicle: saline with Tween-80 97 % of control | dose: 200.0 mg/kg/injection, schedule: Q04DX003 (ip), vehicle: saline with Tween-80 97 % of control | dose: 400.0 mg/kg/injection, schedule: Q04DX003 (ip), vehicle: saline with Tween-80 92 % of control

Cn1cnc([N+](=O)[O-])c1SCC(N)C(=O)O (centres undefined)
inactive: [7] 94 % of control | [8] 94 % of control | dose: 200.0 mg/kg/injection, schedule: Q01DX005 (ip), vehicle: Klucel (hydroxypropylcellulose) (HPC) 94 % of control

CCOP(O)(=S)OCC.[Ce]
inactive: dose: 100.0 mg/kg/injection, schedule: Q04DX003 (ip), vehicle: Klucel (hydroxypropylcellulose) (HPC) 99 % of control | dose: 200.0 mg/kg/injection, schedule: Q04DX003 (ip), vehicle: Klucel (hydroxypropylcellulose) (HPC) 100 % of control | dose: 400.0 mg/kg/injection, schedule: Q04DX003 (ip), vehicle: Klucel (hydroxypropylcellulose) (HPC) 93 % of control

C=CC[P+](CC)(c1ccccc1)c1ccccc1
inactive: dose: 0.78 mg/kg/injection, schedule: Q01DX009 (ip), vehicle: saline 95 % of control | dose: 1.56 mg/kg/injection, schedule: Q01DX009 (ip), vehicle: saline 88 % of control | dose: 3.13 mg/kg/injection, schedule: Q01DX009 (ip), vehicle: saline 93 % of control

CC1=C(C)C(=O)O[C@@H]([C@](C)(O)[C@]2(O)CC[C@@]3(O)[C@@H]4C[C@H]5O[C@]56[C@@H](O)C=CC(=O)[C@]6(C)[C@H]4CC[C@]23C)C1
inactive: dose: 1.0 mg/kg/injection, schedule: Q01DX005 (ip), vehicle: distilled water + Tween-80 108 % of control | dose: 2.0 mg/kg/injection, schedule: Q01DX005 (ip), vehicle: distilled water + Tween-80 122 % of control | dose: 4.0 mg/kg/injection, schedule: Q01DX005 (ip), vehicle: distilled water + Tween-80 111 % of control and 113 % of control | dose: 4.0 mg/kg/injection, schedule: Q01DX005 (ip), vehicle: saline 122 % of control | dose: 8.0 mg/kg/injection, schedule: Q01DX005 (ip), vehicle: distilled water + Tween-80 108 % of control and 113 % of control | dose: 16.0 mg/kg/injection, schedule: Q01DX005 (ip), vehicle: distilled water + Tween-80 116 % of control | dose: 16.0 mg/kg/injection, schedule: Q01DX005 (ip), vehicle: saline 122 % of control | dose: 16.0 mg/kg/injection, schedule: Q01DX009 (ip), vehicle: saline 93 % of control | dose: 32.0 mg/kg/injection, schedule: Q01DX009 (ip), vehicle: saline 114 % of control

C=CCC12CC(C)OC1=Nc1ccccc1NC2=O (centres undefined)
inactive: [9] 98 % of control | [10] 100 % of control | dose: 200.0 mg/kg/injection, schedule: Q01DX005 (ip), vehicle: saline with Tween-80 104 % of control

Cc1ccccc1C1OC(N)=C(O)C1=O (centres undefined)
inactive: dose: 60.0 mg/kg/injection, schedule: Q01DX005 (ip), vehicle: Klucel (hydroxypropylcellulose) (HPC) 93 % of control | dose: 120.0 mg/kg/injection, schedule: Q01DX005 (ip), vehicle: Klucel (hydroxypropylcellulose) (HPC) 93 % of control | dose: 240.0 mg/kg/injection, schedule: Q01DX005 (ip), vehicle: Klucel (hydroxypropylcellulose) (HPC) 90 % of control
